Experimental data taken from ChEMBL document CHEMBL2375290, “Nonclassical antifolates, part 3: synthesis, biological evaluation and molecular modeling study of some new 2-heteroarylthio-quinazolin-4-ones” (Eur J Med Chem, 2013).

Tests used:
[1] = tested on: PC-3; experiment: Cytotoxicity against human PC3 cells at 10 uM after 48 hrs by coulter counter analysis; type: functional; conditions: PC-3, 48 h, read-out: GI
[2] = tested on: Bacillus subtilis; experiment: Antimicrobial activity against Bacillus subtilis at 200 ug after 24 hrs by agar disc diffusion method; type: functional; conditions: read-out: DIZ
[3] = tested on: Staphylococcus aureus; experiment: Antimicrobial activity against Staphylococcus aureus at 200 ug after 24 hrs by agar disc diffusion method; type: functional; conditions: read-out: DIZ
[4] = tested on: NCI-H522; experiment: Cytotoxicity against human NCI-H522 cells at 10 uM after 48 hrs by coulter counter analysis; type: functional; conditions: NCI-H522, 48 h, read-out: GI
[5] = tested on: Escherichia coli; experiment: Antimicrobial activity against Escherichia coli at 200 ug after 24 hrs by agar disc diffusion method; type: functional; conditions: read-out: DIZ
[6] = tested on: SNB-19; experiment: Cytotoxicity against human SNB19 cells at 10 uM after 48 hrs by coulter counter analysis; type: functional; conditions: SNB-19, 48 h, read-out: GI
[7] = tested on: RXF 393; experiment: Cytotoxicity against human RXF393 cells at 10 uM after 48 hrs by coulter counter analysis; type: functional; conditions: RXF 393, 48 h, read-out: GI
[8] = tested on: MDA-MB-231; experiment: Cytotoxicity against human MDA-MB-231 cells at 10 uM after 48 hrs by coulter counter analysis; type: functional; conditions: MDA-MB-231, 48 h, read-out: GI
[9] = tested on: OVCAR-4; experiment: Cytotoxicity against human OVCAR4 cells at 10 uM after 48 hrs by coulter counter analysis; type: functional; conditions: OVCAR-4, 48 h, read-out: GI
[10] = tested on: CAKI-1; experiment: Cytotoxicity against human Caki1 cells at 10 uM after 48 hrs by coulter counter analysis; type: functional; conditions: CAKI-1, 48 h, read-out: GI
[11] = tested on: A549; experiment: Cytotoxicity against human A549/ATCC cells at 10 uM after 48 hrs by coulter counter analysis; type: functional; conditions: A549, 48 h, read-out: GI
[12] = tested on: SNB-75; experiment: Cytotoxicity against human SNB75 cells at 10 uM after 48 hrs by coulter counter analysis; type: functional; conditions: SNB-75, 48 h, read-out: GI
[13] = tested on: HL-60(TB); experiment: Cytotoxicity against human HL-60(TB) cells at 10 uM after 48 hrs by coulter counter analysis; type: functional; conditions: HL-60, 48 h, read-out: GI
[14] = tested on: A498; experiment: Cytotoxicity against human A498 cells at 10 uM after 48 hrs by coulter counter analysis; type: functional; conditions: A498, 48 h, read-out: GI
[15] = tested on: CCRF-CEM; experiment: Cytotoxicity against human CCRF-CEM cells at 10 uM after 48 hrs by coulter counter analysis; type: functional; conditions: read-out: GI
[16] = tested on: Hs-578T; experiment: Cytotoxicity against human Hs578T cells at 10 uM after 48 hrs by coulter counter analysis; type: functional; conditions: read-out: GI
[17] = tested on: UO-31; experiment: Cytotoxicity against human UO31 cells at 10 uM after 48 hrs by coulter counter analysis; type: functional; conditions: UO-31, 48 h, read-out: GI
[18] = tested on: RPMI-8226; experiment: Cytotoxicity against human RPMI8226 cells at 10 uM after 48 hrs by coulter counter analysis; type: functional; conditions: RPMI-8226, 48 h, read-out: GI
[19] = tested on: MOLT-4; experiment: Cytotoxicity against human MOLT4 cells at 10 uM after 48 hrs by coulter counter analysis; type: functional; conditions: MOLT-4, 48 h, read-out: GI
[20] = Cytotoxicity against human NCI-ADR-RES cells at 10 uM after 48 hrs by coulter counter analysis; type: functional; conditions: read-out: GI
[21] = tested on: SR; experiment: Cytotoxicity against human SR cells at 10 uM after 48 hrs by coulter counter analysis; type: functional; conditions: read-out: GI
[22] = tested on: Malme-3M; experiment: Cytotoxicity against human MALME-3M cells at 10 uM after 48 hrs by coulter counter analysis; type: functional; conditions: read-out: GI
[23] = tested on: T47D; experiment: Cytotoxicity against human T47D cells at 10 uM after 48 hrs by coulter counter analysis; type: functional; conditions: read-out: GI
[24] = tested on: SF-295; experiment: Cytotoxicity against human SF295 cells at 10 uM after 48 hrs by coulter counter analysis; type: functional; conditions: SF-295, 48 h, read-out: GI
[25] = tested on: MDA-MB-435; experiment: Cytotoxicity against human MDA-MB-435 cells at 10 uM after 48 hrs by coulter counter analysis; type: functional; conditions: MDA-MB-435, 48 h, read-out: GI
[26] = Cytotoxicity against human EKVX cells at 10 uM after 48 hrs by coulter counter analysis; type: functional; conditions: read-out: GI
[27] = tested on: NCI-H23; experiment: Cytotoxicity against human NCI-H23 cells at 10 uM after 48 hrs by coulter counter analysis; type: functional; conditions: NCI-H23, 48 h, read-out: GI
[28] = tested on: MCF7; experiment: Cytotoxicity against human MCF7 cells at 10 uM after 48 hrs by coulter counter analysis; type: functional; conditions: MCF7, 48 h, read-out: GI
[29] = target: T1, Dihydrofolate reductase (Bos taurus, UniProt P00376); experiment: Inhibition of bovine DHFR after 2 mins by spectrophotometry
T1 sequence (P00376 whole entry): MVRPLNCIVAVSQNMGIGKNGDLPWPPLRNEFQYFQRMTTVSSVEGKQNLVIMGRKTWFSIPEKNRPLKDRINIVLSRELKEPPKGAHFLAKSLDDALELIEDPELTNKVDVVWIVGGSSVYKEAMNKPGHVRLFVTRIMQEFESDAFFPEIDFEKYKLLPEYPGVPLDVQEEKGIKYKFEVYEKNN

[30] = tested on: Micrococcus luteus; experiment: Antimicrobial activity against Micrococcus luteus at 200 ug after 24 hrs by agar disc diffusion method; type: functional; conditions: read-out: DIZ
[31] = tested on: IGROV-1; experiment: Cytotoxicity against human IGROV1 cells at 10 uM after 48 hrs by coulter counter analysis; type: functional; conditions: IGROV-1, 48 h, read-out: GI
[32] = tested on: NCI-H226; experiment: Cytotoxicity against human NCI-H226 cells at 10 uM after 48 hrs by coulter counter analysis; type: functional; conditions: NCI-H226, 48 h, read-out: GI
[33] = tested on: Pseudomonas aeruginosa; experiment: Antimicrobial activity against Pseudomonas aeruginosa at 200 ug after 24 hrs by agar disc diffusion method; type: functional; conditions: read-out: DIZ
[34] = tested on: SN12C; experiment: Cytotoxicity against human SN12C cells at 10 uM after 48 hrs by coulter counter analysis; type: functional; conditions: read-out: GI
[35] = tested on: SK-MEL-5; experiment: Cytotoxicity against human SK-MEL-5 cells at 10 uM after 48 hrs by coulter counter analysis; type: functional; conditions: SK-MEL-5, 48 h, read-out: GI
[36] = tested on: LOX IMVI; experiment: Cytotoxicity against human LOXIMVI cells at 10 uM after 48 hrs by coulter counter analysis; type: functional; conditions: read-out: GI
[37] = tested on: UACC-62; experiment: Cytotoxicity against human UACC62 cells at 10 uM after 48 hrs by coulter counter analysis; type: functional; conditions: UACC-62, 48 h, read-out: GI

SMILES | inhibition of growth at 10 µM [1] | zone of inhibition at 200 µg/disc [2] | zone of inhibition at 200 µg/disc [3] | inhibition of growth at 10 µM [4] | zone of inhibition at 200 µg/disc [5] | inhibition of growth at 10 µM [6] | inhibition of growth at 10 µM [7] | inhibition of growth at 10 µM [8] | inhibition of growth at 10 µM [9] | inhibition of growth at 10 µM [10] | inhibition of growth at 10 µM [11] | inhibition of growth at 10 µM [12] | inhibition of growth at 10 µM [13] | inhibition of growth at 10 µM [14] | inhibition of growth at 10 µM [15] | inhibition of growth at 10 µM [16] | inhibition of growth at 10 µM [17] | inhibition of growth at 10 µM [18] | inhibition of growth at 10 µM [19] | inhibition of growth at 10 µM [20] | further results
Cc1ccc2nc(Sc3cnc(N)s3)n(-c3ccccc3)c(=O)c2c1 | 10.1% | 8 mm | 8 mm | 13.8% | 8 mm | < 10% | < 10% | 18.1% | < 10% | 20.9% | < 10% | < 10% | < 10% | < 10% | < 10% | < 10% | 20.7% | < 10% | < 10% | < 10% | inhibition of growth at 10 µM [21]: 37.8%; inhibition of growth at 10 µM [22]: < 10%; inhibition of growth at 10 µM [23]: < 10%; inhibition of growth at 10 µM [24]: < 10%; inhibition of growth at 10 µM [25]: < 10%; inhibition of growth at 10 µM [26]: < 10%; inhibition of growth at 10 µM [27]: < 10%; inhibition of growth at 10 µM [28]: < 10%; IC50 [29]: 0.8 µM; zone of inhibition at 200 µg/disc [30]: 8 mm; inhibition of growth at 10 µM [31]: 14.3%; inhibition of growth at 10 µM [32]: 12.4%; zone of inhibition at 200 µg/disc [33]: 8 mm; inhibition of growth at 10 µM [34]: < 10%; inhibition of growth at 10 µM [35]: < 10%; inhibition of growth at 10 µM [36]: < 10%; inhibition of growth at 10 µM [37]: < 10%
Nc1ncc(Sc2nc3ccc(Cl)cc3c(=O)n2Cc2ccccc2)s1 | 28.2% | 18 mm | 16 mm | 16% | 15 mm | < 10% | < 10% | 11.2% | 13.8% | 25.6% | < 10% | 10.7% | < 10% | 11.2% | 13.7% | < 10% | 14.8% | 18.9% | 16.8% | < 10% | inhibition of growth at 10 µM [21]: < 10%; inhibition of growth at 10 µM [22]: 10.8%; inhibition of growth at 10 µM [23]: 10.4%; inhibition of growth at 10 µM [24]: 16.6%; inhibition of growth at 10 µM [25]: < 10%; inhibition of growth at 10 µM [26]: 11.9%; inhibition of growth at 10 µM [27]: < 10%; inhibition of growth at 10 µM [28]: < 10%; IC50 [29]: 2 µM; zone of inhibition at 200 µg/disc [30]: 8 mm; inhibition of growth at 10 µM [31]: 12%; inhibition of growth at 10 µM [32]: 17.1%; zone of inhibition at 200 µg/disc [33]: 8 mm; inhibition of growth at 10 µM [34]: < 10%; inhibition of growth at 10 µM [35]: < 10%; inhibition of growth at 10 µM [36]: 14.9%; inhibition of growth at 10 µM [37]: 14.4%
Cc1ccc2nc(Sc3ncccc3C(=O)O)n(Cc3ccccc3)c(=O)c2c1 | 32.8% | 16 mm | 15 mm | 24.4% | 8 mm | 14.2% | 21.5% | 30.5% | 16.2% | 41.2% | < 10% | 30% | < 10% | 11.4% | 16.5% | 12.5% | 20.6% | 25.8% | 15.3% | 12.7% | inhibition of growth at 10 µM [21]: 14.4%; inhibition of growth at 10 µM [22]: < 10%; inhibition of growth at 10 µM [23]: < 10%; inhibition of growth at 10 µM [24]: 14.2%; inhibition of growth at 10 µM [25]: 21.8%; inhibition of growth at 10 µM [26]: 26.6%; inhibition of growth at 10 µM [27]: < 10%; inhibition of growth at 10 µM [28]: 16.6%; IC50 [29]: 10 µM; zone of inhibition at 200 µg/disc [30]: 12 mm; inhibition of growth at 10 µM [31]: 16.3%; inhibition of growth at 10 µM [32]: 21.2%; zone of inhibition at 200 µg/disc [33]: 8 mm; inhibition of growth at 10 µM [34]: 11.2%; inhibition of growth at 10 µM [35]: 14.4%; inhibition of growth at 10 µM [36]: 13.8%; inhibition of growth at 10 µM [37]: 30.4%
